Reference: ChEMBL document CHEMBL5653631, “A Potent and Selective ULK1 Inhibitor Suppresses Autophagy and Sensitizes Cancer Cells to Nutrient Stress” (iScience, 2018)
Each block holds one compound with its values, some of them ahead of it.

Key:
[1] = target: T1, Discoidin domain-containing receptor 2 (Homo sapiens) (UniProt Q16832); assay: Inhibition of human recombinant DDR2 at 500 nM in presence of ATP by radiometric assay relative to control
T1 sequence (whole entry): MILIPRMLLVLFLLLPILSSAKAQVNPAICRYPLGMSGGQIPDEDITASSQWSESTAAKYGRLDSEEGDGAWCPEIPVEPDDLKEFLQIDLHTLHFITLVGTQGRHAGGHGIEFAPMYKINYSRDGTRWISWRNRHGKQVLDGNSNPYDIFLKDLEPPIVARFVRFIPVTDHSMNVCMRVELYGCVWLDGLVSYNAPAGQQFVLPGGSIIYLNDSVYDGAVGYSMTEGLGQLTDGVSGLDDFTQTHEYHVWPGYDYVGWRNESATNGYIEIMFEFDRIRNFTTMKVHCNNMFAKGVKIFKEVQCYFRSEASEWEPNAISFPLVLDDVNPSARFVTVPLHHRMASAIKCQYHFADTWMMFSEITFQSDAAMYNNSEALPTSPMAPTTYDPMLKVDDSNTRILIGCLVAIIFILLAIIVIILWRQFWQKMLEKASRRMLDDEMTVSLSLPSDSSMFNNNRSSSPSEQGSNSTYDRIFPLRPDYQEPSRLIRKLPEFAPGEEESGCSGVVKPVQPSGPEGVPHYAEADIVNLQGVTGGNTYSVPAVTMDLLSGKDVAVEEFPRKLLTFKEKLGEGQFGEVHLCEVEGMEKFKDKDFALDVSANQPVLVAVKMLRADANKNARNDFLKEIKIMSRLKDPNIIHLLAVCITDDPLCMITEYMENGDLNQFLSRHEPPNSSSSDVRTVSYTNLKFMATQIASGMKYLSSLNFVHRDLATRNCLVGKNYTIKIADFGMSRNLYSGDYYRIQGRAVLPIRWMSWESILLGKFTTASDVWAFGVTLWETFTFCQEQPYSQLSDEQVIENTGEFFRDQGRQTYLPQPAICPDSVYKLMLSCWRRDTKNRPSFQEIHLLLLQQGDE

[2] = target: Serine/threonine-protein kinase 10 (Homo sapiens) (UniProt O94804); assay: Inhibition of human recombinant LOK at 500 nM in presence of ATP by radiometric assay relative to control
[3] = target: Serine/threonine-protein kinase PAK 3 (Homo sapiens) (UniProt O75914); assay: Inhibition of human recombinant PAK3 at 500 nM in presence of ATP by radiometric assay relative to control
[4] = target: T2, cGMP-dependent protein kinase 2 (Homo sapiens) (UniProt Q13237); assay: Inhibition of human recombinant PKG2 at 500 nM related to control ULK1
T2 sequence (whole entry): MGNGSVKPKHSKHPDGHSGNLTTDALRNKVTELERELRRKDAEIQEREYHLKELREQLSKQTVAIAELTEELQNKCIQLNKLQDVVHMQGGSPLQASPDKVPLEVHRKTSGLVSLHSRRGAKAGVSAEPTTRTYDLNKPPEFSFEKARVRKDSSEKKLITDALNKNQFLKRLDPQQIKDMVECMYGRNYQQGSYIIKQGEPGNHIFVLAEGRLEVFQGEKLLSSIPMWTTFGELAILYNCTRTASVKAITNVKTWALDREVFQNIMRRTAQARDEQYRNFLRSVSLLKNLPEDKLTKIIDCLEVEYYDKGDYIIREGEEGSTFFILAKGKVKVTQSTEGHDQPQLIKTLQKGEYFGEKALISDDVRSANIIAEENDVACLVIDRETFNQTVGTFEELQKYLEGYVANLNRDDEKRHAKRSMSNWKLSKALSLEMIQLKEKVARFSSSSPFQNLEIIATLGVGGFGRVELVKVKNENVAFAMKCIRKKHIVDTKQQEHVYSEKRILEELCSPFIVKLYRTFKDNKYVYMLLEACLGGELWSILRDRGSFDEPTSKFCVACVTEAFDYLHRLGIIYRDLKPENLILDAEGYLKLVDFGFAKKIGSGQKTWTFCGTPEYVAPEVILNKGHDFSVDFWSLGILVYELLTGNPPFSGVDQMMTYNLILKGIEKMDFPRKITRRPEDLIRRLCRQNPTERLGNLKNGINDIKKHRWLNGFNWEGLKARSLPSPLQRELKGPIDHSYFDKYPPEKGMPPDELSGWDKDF

[5] = target: Tyrosine-protein kinase CSK (Homo sapiens) (UniProt P41240); assay: Inhibition of human recombinant CSK at 40 nM in presence of ATP by radiometric assay relative to control
[6] = target: Homeodomain-interacting protein kinase 1 (Homo sapiens) (UniProt Q86Z02); assay: Inhibition of human recombinant HIPK1 at 40 nM in presence of ATP by radiometric assay relative to control
[7] = target: T3, Cytoplasmic tyrosine-protein kinase BMX (Homo sapiens) (UniProt P51813); assay: Inhibition of human recombinant BMX at 40 nM related to control ULK1
T3 sequence (whole entry): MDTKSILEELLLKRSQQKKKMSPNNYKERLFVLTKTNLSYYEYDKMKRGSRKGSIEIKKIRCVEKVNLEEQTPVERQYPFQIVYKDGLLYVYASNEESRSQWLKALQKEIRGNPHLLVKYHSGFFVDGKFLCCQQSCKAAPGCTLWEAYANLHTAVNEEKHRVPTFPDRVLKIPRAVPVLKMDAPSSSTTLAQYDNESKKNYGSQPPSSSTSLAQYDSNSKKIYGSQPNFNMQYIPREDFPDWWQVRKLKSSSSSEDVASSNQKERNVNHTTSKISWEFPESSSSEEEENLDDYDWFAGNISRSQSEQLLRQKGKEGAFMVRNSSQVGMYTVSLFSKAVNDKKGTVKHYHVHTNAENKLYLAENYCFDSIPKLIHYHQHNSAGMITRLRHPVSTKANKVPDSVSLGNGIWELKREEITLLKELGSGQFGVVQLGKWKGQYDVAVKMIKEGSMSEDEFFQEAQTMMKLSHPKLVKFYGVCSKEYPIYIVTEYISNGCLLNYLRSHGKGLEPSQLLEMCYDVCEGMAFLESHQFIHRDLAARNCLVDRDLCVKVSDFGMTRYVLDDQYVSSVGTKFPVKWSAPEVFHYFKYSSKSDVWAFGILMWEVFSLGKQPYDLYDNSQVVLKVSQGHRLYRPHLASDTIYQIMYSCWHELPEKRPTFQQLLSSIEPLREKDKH

[8] = target: Ephrin type-A receptor 5 (Homo sapiens) (UniProt P54756); assay: Inhibition of human recombinant EphA5 at 40 nM related to control ULK1
[9] = target: MAP kinase-activated protein kinase 3 (Homo sapiens) (UniProt Q16644); assay: Inhibition of human recombinant MAPKAPK3 at 40 nM related to control ULK1
[10] = target: Casein kinase II subunit alpha' (Homo sapiens) (UniProt P19784); assay: Inhibition of human recombinant CK2a2 at 15 nM related to control ULK1
[11] = target: Homeodomain-interacting protein kinase 1 (Homo sapiens) (UniProt Q86Z02); assay: Inhibition of human recombinant HIPK1 at 15 nM related to control ULK1

Homeodomain-interacting protein kinase 1 (Homo sapiens), sequence (Q86Z02 whole entry, looked up): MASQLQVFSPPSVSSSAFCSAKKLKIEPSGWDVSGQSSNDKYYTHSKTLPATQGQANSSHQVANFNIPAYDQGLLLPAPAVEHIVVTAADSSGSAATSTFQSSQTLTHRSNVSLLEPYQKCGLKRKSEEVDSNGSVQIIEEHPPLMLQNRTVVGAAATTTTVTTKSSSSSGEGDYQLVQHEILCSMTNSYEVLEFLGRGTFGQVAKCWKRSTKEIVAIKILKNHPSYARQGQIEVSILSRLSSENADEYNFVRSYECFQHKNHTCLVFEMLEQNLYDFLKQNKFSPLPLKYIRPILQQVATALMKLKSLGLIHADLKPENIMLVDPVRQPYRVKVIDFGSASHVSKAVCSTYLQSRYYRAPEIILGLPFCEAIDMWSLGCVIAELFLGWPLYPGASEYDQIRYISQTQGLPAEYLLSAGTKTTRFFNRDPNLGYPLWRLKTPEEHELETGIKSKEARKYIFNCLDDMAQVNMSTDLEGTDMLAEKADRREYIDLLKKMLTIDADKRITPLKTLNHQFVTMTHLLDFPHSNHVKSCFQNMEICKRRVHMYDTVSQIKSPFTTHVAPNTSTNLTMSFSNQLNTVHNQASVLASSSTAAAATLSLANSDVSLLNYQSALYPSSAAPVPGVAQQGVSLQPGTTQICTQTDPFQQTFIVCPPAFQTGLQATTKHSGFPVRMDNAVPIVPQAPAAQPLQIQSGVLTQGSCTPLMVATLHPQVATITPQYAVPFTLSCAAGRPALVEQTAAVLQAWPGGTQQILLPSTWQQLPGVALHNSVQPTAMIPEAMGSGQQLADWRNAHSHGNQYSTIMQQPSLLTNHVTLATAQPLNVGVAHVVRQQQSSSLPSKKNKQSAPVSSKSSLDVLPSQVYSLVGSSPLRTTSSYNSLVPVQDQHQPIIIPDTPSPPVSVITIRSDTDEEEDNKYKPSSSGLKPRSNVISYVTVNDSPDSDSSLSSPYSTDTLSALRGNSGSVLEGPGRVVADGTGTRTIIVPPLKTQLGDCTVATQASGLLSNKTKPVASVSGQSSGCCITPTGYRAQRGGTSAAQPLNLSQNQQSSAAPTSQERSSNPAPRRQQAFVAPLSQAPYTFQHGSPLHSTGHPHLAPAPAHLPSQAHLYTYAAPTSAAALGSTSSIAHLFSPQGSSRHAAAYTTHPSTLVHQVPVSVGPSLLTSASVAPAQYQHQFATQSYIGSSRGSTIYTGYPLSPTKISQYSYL
Serine/threonine-protein kinase PAK 3 (Homo sapiens), sequence (O75914 whole entry, looked up): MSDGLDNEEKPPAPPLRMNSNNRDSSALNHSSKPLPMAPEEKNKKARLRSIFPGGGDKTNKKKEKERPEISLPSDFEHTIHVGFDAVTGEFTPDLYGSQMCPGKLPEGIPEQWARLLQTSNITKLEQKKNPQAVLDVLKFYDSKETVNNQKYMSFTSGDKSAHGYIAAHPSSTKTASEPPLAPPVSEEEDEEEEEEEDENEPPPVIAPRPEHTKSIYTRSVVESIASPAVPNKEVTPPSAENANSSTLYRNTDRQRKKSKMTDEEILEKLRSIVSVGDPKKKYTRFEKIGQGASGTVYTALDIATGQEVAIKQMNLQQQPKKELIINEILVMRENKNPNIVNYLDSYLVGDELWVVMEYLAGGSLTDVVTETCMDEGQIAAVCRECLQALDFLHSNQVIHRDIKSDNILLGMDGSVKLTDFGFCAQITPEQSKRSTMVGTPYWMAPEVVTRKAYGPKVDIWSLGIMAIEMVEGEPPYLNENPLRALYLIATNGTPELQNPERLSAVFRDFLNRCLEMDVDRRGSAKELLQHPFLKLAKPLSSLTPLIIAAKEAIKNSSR
Casein kinase II subunit alpha' (Homo sapiens), sequence (P19784 whole entry, looked up): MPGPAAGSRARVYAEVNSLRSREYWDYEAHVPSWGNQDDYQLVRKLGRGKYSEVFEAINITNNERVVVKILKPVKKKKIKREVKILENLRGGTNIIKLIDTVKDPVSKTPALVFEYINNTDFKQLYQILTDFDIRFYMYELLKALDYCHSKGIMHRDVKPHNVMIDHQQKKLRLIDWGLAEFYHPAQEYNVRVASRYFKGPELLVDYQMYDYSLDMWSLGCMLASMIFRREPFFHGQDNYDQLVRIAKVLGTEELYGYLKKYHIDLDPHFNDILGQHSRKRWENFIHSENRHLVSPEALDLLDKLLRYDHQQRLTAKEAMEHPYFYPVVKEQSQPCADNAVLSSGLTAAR
MAP kinase-activated protein kinase 3 (Homo sapiens), sequence (Q16644 whole entry, looked up): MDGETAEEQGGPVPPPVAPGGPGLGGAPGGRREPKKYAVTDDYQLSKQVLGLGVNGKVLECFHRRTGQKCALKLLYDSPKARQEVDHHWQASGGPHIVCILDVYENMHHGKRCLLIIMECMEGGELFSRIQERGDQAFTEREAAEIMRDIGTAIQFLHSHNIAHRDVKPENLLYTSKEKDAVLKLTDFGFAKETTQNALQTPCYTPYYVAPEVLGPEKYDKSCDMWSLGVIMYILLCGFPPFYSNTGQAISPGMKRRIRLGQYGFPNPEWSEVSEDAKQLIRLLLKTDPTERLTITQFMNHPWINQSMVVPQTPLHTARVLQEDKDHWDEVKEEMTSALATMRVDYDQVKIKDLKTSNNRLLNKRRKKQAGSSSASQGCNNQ
Serine/threonine-protein kinase 10 (Homo sapiens), sequence (O94804 whole entry, looked up): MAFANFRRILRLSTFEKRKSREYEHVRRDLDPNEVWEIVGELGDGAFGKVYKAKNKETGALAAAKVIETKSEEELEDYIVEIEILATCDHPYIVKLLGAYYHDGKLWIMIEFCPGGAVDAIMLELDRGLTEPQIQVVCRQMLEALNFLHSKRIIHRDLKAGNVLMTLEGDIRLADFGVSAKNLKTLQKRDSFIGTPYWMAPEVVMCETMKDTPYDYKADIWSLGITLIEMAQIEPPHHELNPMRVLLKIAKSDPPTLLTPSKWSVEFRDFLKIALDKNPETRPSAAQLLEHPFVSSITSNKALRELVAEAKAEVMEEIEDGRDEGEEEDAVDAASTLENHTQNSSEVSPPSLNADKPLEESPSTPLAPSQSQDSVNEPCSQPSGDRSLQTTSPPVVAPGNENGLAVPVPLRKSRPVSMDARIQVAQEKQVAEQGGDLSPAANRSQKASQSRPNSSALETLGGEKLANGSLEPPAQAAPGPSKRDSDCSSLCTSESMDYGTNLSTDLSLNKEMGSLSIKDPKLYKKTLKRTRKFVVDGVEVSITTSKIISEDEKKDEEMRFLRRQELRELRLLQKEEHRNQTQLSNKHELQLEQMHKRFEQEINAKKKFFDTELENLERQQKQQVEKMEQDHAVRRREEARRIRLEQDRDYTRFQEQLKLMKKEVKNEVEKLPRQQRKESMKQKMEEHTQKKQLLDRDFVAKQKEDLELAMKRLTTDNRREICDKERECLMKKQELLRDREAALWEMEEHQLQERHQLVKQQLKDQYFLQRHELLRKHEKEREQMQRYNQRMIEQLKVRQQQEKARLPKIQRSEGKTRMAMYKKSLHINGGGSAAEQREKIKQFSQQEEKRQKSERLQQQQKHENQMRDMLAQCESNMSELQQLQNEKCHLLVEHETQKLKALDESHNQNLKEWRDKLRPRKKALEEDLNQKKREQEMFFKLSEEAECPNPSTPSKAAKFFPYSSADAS
Ephrin type-A receptor 5 (Homo sapiens), sequence (P54756 whole entry): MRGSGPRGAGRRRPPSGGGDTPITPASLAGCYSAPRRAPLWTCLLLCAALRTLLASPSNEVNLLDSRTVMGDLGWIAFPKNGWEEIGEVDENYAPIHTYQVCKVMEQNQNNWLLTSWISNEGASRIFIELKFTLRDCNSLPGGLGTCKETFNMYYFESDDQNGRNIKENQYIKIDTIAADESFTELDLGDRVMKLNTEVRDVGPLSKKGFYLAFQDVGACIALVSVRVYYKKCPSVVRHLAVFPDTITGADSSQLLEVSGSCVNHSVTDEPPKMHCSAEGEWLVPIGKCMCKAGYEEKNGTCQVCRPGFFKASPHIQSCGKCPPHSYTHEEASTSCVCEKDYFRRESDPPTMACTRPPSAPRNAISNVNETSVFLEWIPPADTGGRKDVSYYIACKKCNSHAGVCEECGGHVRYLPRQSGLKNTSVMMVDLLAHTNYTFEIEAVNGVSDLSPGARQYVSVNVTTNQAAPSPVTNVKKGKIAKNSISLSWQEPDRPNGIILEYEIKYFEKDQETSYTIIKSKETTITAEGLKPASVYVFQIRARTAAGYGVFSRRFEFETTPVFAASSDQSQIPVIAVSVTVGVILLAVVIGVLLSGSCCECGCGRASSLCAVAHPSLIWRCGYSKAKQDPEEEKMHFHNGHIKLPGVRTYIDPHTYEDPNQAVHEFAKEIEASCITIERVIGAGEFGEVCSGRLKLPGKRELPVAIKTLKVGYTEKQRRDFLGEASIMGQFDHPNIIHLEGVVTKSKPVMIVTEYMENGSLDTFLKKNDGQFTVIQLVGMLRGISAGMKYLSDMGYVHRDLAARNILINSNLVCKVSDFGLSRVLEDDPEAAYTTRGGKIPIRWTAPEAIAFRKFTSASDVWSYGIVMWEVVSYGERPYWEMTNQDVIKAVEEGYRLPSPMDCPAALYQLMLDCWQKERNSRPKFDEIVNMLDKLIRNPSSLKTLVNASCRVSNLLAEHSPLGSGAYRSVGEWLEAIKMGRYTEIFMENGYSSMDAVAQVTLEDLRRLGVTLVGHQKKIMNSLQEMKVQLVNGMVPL
Tyrosine-protein kinase CSK (Homo sapiens), sequence (P41240 2-450 limits assumed): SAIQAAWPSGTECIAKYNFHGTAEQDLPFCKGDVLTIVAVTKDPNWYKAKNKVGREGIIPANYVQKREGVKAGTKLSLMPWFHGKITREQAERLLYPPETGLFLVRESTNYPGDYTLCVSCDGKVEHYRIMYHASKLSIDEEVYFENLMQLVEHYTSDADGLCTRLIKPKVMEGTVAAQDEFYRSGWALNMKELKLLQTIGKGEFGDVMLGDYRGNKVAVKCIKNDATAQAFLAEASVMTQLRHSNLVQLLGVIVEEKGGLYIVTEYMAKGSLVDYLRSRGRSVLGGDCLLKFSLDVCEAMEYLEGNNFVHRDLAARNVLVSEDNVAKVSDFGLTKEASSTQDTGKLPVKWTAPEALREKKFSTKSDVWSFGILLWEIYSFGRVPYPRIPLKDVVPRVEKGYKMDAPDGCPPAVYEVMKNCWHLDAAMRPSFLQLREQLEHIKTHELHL

inhibition [1]: 0%
inhibition [2]: 0%
inhibition [3]: 9%
fold change (FC) [4]: 0.03
SMILES: CNC(=O)c1ccccc1Oc1nc(Nc2cc(OC)c(OC)c(OC)c2)ncc1Br

inhibition [5]: 0%
inhibition [6]: 0%
fold change (FC) [7]: 0.05
fold change (FC) [8]: 0
fold change (FC) [9]: 0
SMILES: O=C(N[C@@H](C1CC1)C(F)(F)F)c1cc(-c2cnn3cc(-c4ccc(F)cc4)cnc23)cs1

fold change (FC) [10]: 0.06
fold change (FC) [11]: 0
SMILES: CC(C)[C@H](NC(=O)c1cc(-c2cnn3cc(-c4ccc(OCCN5CCCCC5)cc4)cnc23)cs1)C(F)(F)F
